Measurements from a melting point compilation (Tetko et al.; mined from patent text by program, amines drawn as free bases though some values may be those of a salt).

SMILES | melting point [°C]
CCCC(O)c1cc(C(=O)OC)c(NC(C)=O)cc1C(F)(F)F (stereo not given) | 97 to 101
CC(C)(O)Cn1c(CO)nc2c(N)nc3cc(CCS(C)(=O)=O)ccc3c21 | 221 to 223
CCCc1ccc(S(=O)(=O)c2ccc(F)cc2)cc1S(=O)(=O)NCCc1ccncc1 | 160 to 162
O=C(NCCCl)NC(c1cccc(C(F)(F)F)c1)C(F)(F)F (stereo not given) | 124 to 128
Cc1cc(C)c(NC(=O)N(Cc2ccc3c(c2)-c2ccccc2-3)C2CCCCCC2)c(C)c1 | 123 to 124
NCc1ccn(-c2cc3[nH]c(=O)c(=O)[nH]c3cc2[N+](=O)[O-])c1 | > 300
CCOC(=O)c1cn(C)c2cnc3cc(F)c(F)cc3c2c1=O | 272
ON=Cc1ccc(N2CCC3(CC2)OCCO3)cc1 | 151 to 152
COc1ccccc1Sc1ccc(C=O)c(Cl)c1Cl | 137 to 139
COC(=O)C1CCc2ccc(O)cc2C1 (stereo not given) | 83 to 84
CSCc1cc2ccccc2n(-c2ccccc2)c1=O | 138 to 140
COc1cccc(C=C(NC=O)c2ccncc2)c1OC | 161 to 162
CCOc1nc(N)nc(C2CC2)n1 | 103 to 106
O=[N+]([O-])c1cccc(-c2ccnc3[nH]c4ccccc4c23)c1 | > 220
COc1cc2c(Nc3ccc(Oc4ccccc4)cc3)c(C#N)cnc2cc1OCCCl | 148 to 151
C=C(c1ccsc1C=O)c1cc(C(C)(C)C)cc2c1CCC2(C)C | 99 to 100
CCOC(=O)c1nc2ccccc2nc1CC | 53 to 54
COc1csc(Cc2c(C(C)C)cc(C(C)C)c(C(C)O)c2-c2ccc(F)cc2)c1 (single isomer, unassigned; (+)) | 140 to 142
CC1=C(C(=O)O)C(c2cccc([N+](=O)[O-])c2)C(C(=O)OCCNC(=O)c2cccnc2)=C(C)N1 (stereo not given) | 151 to 152
COc1ccccc1N1CCN(S(=O)(=O)c2ccc(N)cc2)CC1 | 230 to 232
CCOc1ncc(Cl)cc1C1OC(=O)NC1=O (stereo not given) | 119 to 124
CN1C(=O)C2(COc3cc4c(cc32)OCCO4)c2c(-c3cc[nH]n3)cccc21 (stereo not given) | 201 to 202
CCOc1c(Cl)ccc(-c2nc(C(=O)OC)c(Cl)c(S(C)(=O)=O)n2)c1F | 164 to 166
O=C(O)c1ccc(-c2cnc3c(c2)N(Cc2c(Cl)cccc2Cl)C(=O)CN3)cc1 | > 200

SMILES | melting point [°C]
COC(=O)N=C(N(C)C)N(C)C(=O)NC1CCCCC1 | 60
CCCc1ccc(S(=O)(=O)n2c(CCC(=O)O)cc3cc(Cl)ccc32)cc1 | 144 to 148
COC(=O)c1ccc(CCC(CS(=O)(=O)c2ccc(Oc3ccc(OC(F)(F)F)cc3)cc2)N(O)C=O)cc1 (stereo not given) | 153 to 154
Cc1ccc(NC(=O)c2cc(Cl)ccc2NCC2CCN(C3CCS(=O)(=O)CC3)CC2)nc1 | 154 to 156
CS(=O)(=O)Nc1cc(C(O)CNC2CCN(c3ccc(C=C4SC(=O)NC4=O)cc3F)CC2)ccc1O (stereo not given) | > 225
O=C(N[C@H](Cc1ccc(F)cc1)[C@@H](O)c1ccc(C(F)(F)F)cc1)c1ccc(F)c2ccccc12 (racemic) | 235 to 236
CCCOc1c(C(=O)OCC)oc2ccc([N+](=O)[O-])cc12 | 107
O=CNc1ccc([N+](=O)[O-])cc1 | 195 to 199
Clc1ccc(Oc2ccccc2Oc2ccc(Cl)cn2)nc1 | 82 to 84
CC(C)(C)OC(=O)Nc1cc(CC#N)c(C#Cc2ccccc2)cc1[N+](=O)[O-] | 166
Cc1c(OC(F)F)ccnc1CSc1nc2ccccc2[nH]1 | 99 to 100
O=C(NCC(=O)N1c2ccccc2N(Cc2ccccc2)C(=O)[C@H]2CCC[C@H]21)c1ccc(C(F)(F)F)cc1 (relative stereo) | 218 to 220
CSCCC1OC2(CCCCC2)NC1=O (stereo not given) | 109
Oc1ccc2cc(OCCN3CCC(Cc4ccccc4)CC3)ccc2c1 | 139 to 141
C[C@@H]1CN(c2ccc(N/C=C3\C(=O)NC(=O)c4ccc(-c5ccoc5)cc43)cc2)C[C@H](C)N1C | 204 to 205
Nc1cc2c(=O)cc(C(=O)O)[nH]c2ccc1=O | > 250
CSc1nc2sccc2c2nnc(SCc3ccccc3)n12 | 209 to 211
N#Cc1ccccc1-c1nc2ncccc2o1 | 166 to 167
Cc1nnc(-c2ccc3c(c2)c2cc(-c4ccc(Cl)cc4Cl)c(=O)n(C)c2n3C)o1 | 311 to 316
COc1cc2ncnc(NS(=O)(=O)c3ccc(Br)cc3)c2cc1OC | 241 to 242
CS(=O)(=O)N1CCN(c2nc(N)nc(-c3cc(Cl)ccc3Cl)n2)CC1 | 184 to 186
CCC(C)(C)n1nnnc1S | 104 to 106
CCCCc1ccc(-c2cc(Cl)c(C#N)cn2)cc1 | 107
COc1ccc(C(=O)Nc2ccccc2)cc1Nc1cccc([N+](=O)[O-])c1 | 220 to 221

SMILES | melting point [°C]
CCOc1nc(=O)n(C(C)C)c(=O)[nH]1 | 170 to 171
CN(CCOc1cc(-c2ccc(O)cc2)nn1C)CCc1ccc(Cl)cc1 | 90 to 91
CC(C)c1ccc(NC(=O)C2CCCc3c(OCc4ccccc4)cccc32)cc1 (stereo not given) | 170
CC(COc1ccc(CC2SC(=O)NC2=O)cc1)NCC(O)Cc1ccccc1 (stereo not given) | 145 to 152
CC1=C(C(=O)Nc2cc(C(=O)OC(C)C)c(C)cc2F)SCCO1 | 119 to 122
CC1(C)CCC(C)(C)c2cc(-c3cc(-c4ccc(C(=O)O)cc4)ccc3OCCN3CCOCC3)ccc21 | 270 to 272
COc1cccc(-c2nc(=O)c3ccccc3s2)n1 | 226
CC(C)C(=O)OCC(=O)C12OC(C3CCCCC3)OC1CC1C3CCC4=CC(=O)C=CC4(C)C3C(O)CC12C (stereo not given) | 210 to 211
CC(=O)Oc1ccccc1C(=O)Nc1ccc(-n2nc(C(F)(F)F)cc2C(F)(F)F)cc1 | 159 to 161
CS(=O)(=O)N[C@@H]1CCCC[C@H]1Nc1nc(Nc2ccc3c(c2)CCC(=O)CC3)ncc1Cl | 146 to 153
CCOC(=O)C1(C(=O)OCC)C(C(C)=O)C(=O)N1Cc1ccc(OC)cc1OC (stereo not given) | 84 to 85
CC(C)(O)C[C@@H]1CO[C@](C)([C@H]2CC[C@H]3C(=O)CCC[C@@]32C)C1 | 82
C#CCNC(=O)N1CC(Oc2cccc(C(F)(F)F)c2)C1 | 105 to 106
COc1ccc(CNc2nc(-n3ccnc3)nc3sc(C)cc23)cc1OC | 207
Cc1c(CO)cc(-c2ccc(S(C)(=O)=O)cc2)n1-c1ccc(F)cc1 | 140 to 142
CCCOc1cnc(CN)cc1O | 159 to 160
Cc1cc(C)c2cccc(C(=O)Nc3nnn[nH]3)c2n1 | 300 to 305
COc1cc(CCc2c(CO)ccc(OC)c2OC)cc(OC)c1 | 126 to 128
O=C1CC=C2c3ccc(Cl)cc3CCC2N1 (stereo not given) | 241 to 243
CCOC(=O)c1cn(C)c2ccc(C(=O)c3c(C)c(OC)c4ccccn34)cc2c1=O | 258
CC1OC(n2cnc(C(N)=O)c2CC#N)C(O)C1O (stereo not given) | 173 to 174
CCCc1c(OCC(O)COc2ccc3c(=O)cc(C=CC(=O)OCC)oc3c2CCC)ccc(C(C)=O)c1O (stereo not given) | 125 to 127
